Our source for the IC50 values is patent publication US11673901B2, “Polycyclic compounds as allosteric SHP2 inhibitors” (Revolution Medicines, Inc., priority 2017, dated 2023).

pIC50: −log10 of the molar value.

The term pIC50 denotes the negative decadic logarithm of the IC50, by convention in mol/L. Lower therefore signals a high IC50.

Sequence of SHP2 (Q06124 whole entry): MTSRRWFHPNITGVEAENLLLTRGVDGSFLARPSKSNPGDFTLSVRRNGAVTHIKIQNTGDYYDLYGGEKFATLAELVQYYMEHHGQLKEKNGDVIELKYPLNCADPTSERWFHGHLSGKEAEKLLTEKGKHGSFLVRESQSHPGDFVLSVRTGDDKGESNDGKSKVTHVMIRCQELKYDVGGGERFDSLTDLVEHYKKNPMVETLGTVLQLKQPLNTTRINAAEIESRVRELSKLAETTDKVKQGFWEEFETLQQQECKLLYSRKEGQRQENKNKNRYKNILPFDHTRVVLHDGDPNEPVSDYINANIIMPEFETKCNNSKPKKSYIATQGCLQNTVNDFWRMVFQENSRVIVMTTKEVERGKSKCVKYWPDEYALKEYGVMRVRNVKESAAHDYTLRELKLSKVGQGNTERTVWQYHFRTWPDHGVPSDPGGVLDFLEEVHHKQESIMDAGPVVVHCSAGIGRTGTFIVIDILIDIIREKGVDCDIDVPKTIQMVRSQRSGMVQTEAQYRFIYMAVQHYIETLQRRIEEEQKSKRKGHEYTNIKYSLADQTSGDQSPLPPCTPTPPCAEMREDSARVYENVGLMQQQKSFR

The test has as its target SHP2 (Homo sapiens (Human), UniProt Q06124). Description: SHP2 allosteric inhibition assay (DiFMUP prompt fluorescence). The test is classed as biochemical. The following applies: 0.2 nM SHP2 activated with 0.5 μM Activating Peptide 1 or 2; substrate DiFMUP; Table 2, class symbols. The text has this:
Without wishing to be bound by theory, SHP2 is allosterically activated through binding of bis-tyrosyl-phosphorylated peptides to its Src Homology 2 (SH2) domains. The latter activation step leads to the release of the auto-inhibitory interface of SHP2, which in turn renders the SHP2 protein tyrosine phosphatase (PTP) active and available for substrate recognition and reaction catalysis. The catalytic activity of SHP2 was monitored using the surrogate substrate DiFMUP in a prompt fluorescence assay format.
The phosphatase reactions were performed at room temperature in 96-well black polystyrene plate, flat bottom, non-binding surface (Corning, Cat #3650) using a final reaction volume of 100 μL and the following assay buffer conditions: 50 mM HEPES, pH 7.2, 100 mM NaCl, 0.5 mM EDTA, 0.05% P-20, 1 mM DTT.
The inhibition of SHP2 by compounds of the invention (concentrations varying from 0.00005-10 μM) was monitored using an assay in which 0.2 nM of SHP2 was incubated with 0.5 μM of Activating Peptide 1 (sequence: H2N-LN(pY)IDLDLV(dPEG8)LST(pY)ASINFQK-amide) or Activating Peptide 2 (sequence: H2N-LN(pY)AQLWHA(dPEG8)LTI(pY)ATIRRF-amide). After 30-60-minutes incubation at 25° C., the surrogate substrate DiFMUP (Invitrogen, Cat #D6567) was added to the reaction and activity was determined by a kinetic read using a microplate reader (Envision, Perkin-Elmer or Spectramax M5, Molecular Devices). The excitation and emission wavelengths were 340 nm and 450 nm, respectively. Initial rates were determined from a linear fit of the data, and the inhibitor dose response curves were analyzed using normalized IC50 regression curve fitting with control based normalization.
Regarding `Cc1nc(N2CCC3(CC2)CO[C@@H](C)[C@H]3N)n2ccnc2c1-c1cccc2cc[nH]c12` [Compound 35, (3S,4S)-8-[8-(1H-indol-7-yl)-7-methylimidazo[1,2-c]pyrimidin-5-yl]-3-methyl-2-oxa-8-azaspiro[4.5]decan-4-amine], the pIC50 is at least 7.30.

Compound `Nc1nccc(Sc2cnc(O[C@H]3CC[C@@H](N)C3)n3ccnc23)c1Cl` [Compound 81, 4-[(5-{[(1S,3R)-3-aminocyclopentyl]oxy}imidazo[1,2-c]pyrimidin-8-yl)sulfanyl]-3-chloropyridin-2-amine] showed a pIC50 of under 6.30.

The compound `C[C@@H]1OCC2(CCN(c3nc4[nH]nc(-c5cccc(Cl)c5Cl)c4c4nccn34)CC2)[C@@H]1N` [Compound 83, (3S,4S)-8-[12-(2,3-dichlorophenyl)-3,6,8,10,11-pentaazatricyclo[7.3.0.0^2,6]dodeca-1(12),2,4,7,9-pentaen-7-yl]-3-methyl-2-oxa-8-azaspiro[4.5]decan-4-amine] showed a pIC50 of at least 7.30.

`COc1nccc(-c2c(C)nc(N3CCC4(CC3)CO[C@@H](C)[C@H]4N)n3ccnc23)c1Cl` [Compound 47, (3S,4S)-8-[8-(3-chloro-2-methoxypyridin-4-yl)-7-methylimidazo[1,2-c]pyrimidin-5-yl]-3-methyl-2-oxa-8-azaspiro[4.5]decan-4-amine] gave a pIC50 of at least 7.30.

As to `Nc1nccc(Sc2cnc(N3CCOCC3)n3ccnc23)c1Cl` [Compound 68], the pIC50 was under 6.30.

Take `C[C@@H]1OCC2(CCN(c3ncc(Sc4ccnc(N5CC(S(C)(=O)=O)C5)c4Cl)c4nccn34)CC2)[C@@H]1N` [Compound 12, (3S,4S)-8-(8-{[3-chloro-2-(3-methanesulfonylazetidin-1-yl)pyridin-4-yl]sulfanyl}imidazo[1,2-c]pyrimidin-5-yl)-3-methyl-2-oxa-8-azaspiro[4.5]decan-4-amine]: the negative-log IC50 (pIC50) was at least 7.30.

With `Nc1nccc(Sc2cnc(N3CC4(CC(N)C4)C3)n3ccnc23)c1Cl` [Compound 19, 2-{8-[(2-amino-3-chloropyridin-4-yl)sulfanyl]imidazo[1,2-c]pyrimidin-5-yl}-2-azaspiro[3.3]heptan-6-amine], the pIC50 was under 6.30.

`C[C@@H]1OCC2(CCN(c3ncc(-c4ccnc(N)c4)c4nccn34)CC2)[C@@H]1N` [Compound 58, (3S,4S)-8-[8-(2-aminopyridin-4-yl)imidazo[1,2-c]pyrimidin-5-yl]-3-methyl-2-oxa-8-azaspiro[4.5]decan-4-amine]: the pIC50 was under 6.30.

The compound `Cc1nc(N2CCC3(CC2)CO[C@@H](C)[C@H]3N)n2ccnc2c1-c1ccc2c(cnn2C)c1` [Compound 34, (3S,4S)-3-methyl-8-[7-methyl-8-(1-methyl-1H-indazol-5-yl)imidazo[1,2-c]pyrimidin-5-yl]-2-oxa-8-azaspiro[4.5]decan-4-amine] had a pIC50 of at least 7.30.

`COc1cc(Cl)c(Cl)c(-c2c(C)nc(N3CCC4(CC3)CO[C@@H](C)[C@H]4N)n3ccnc23)c1` [Compound 49, (3S,4S)-8-[8-(2,3-dichloro-5-methoxyphenyl)-7-methylimidazo[1,2-c]pyrimidin-5-yl]-3-methyl-2-oxa-8-azaspiro[4.5]decan-4-amine] gave a negative logarithm of the IC50 (pIC50) of at least 7.30.

Consider `Cc1nc(N2CCC3(CC2)CO[C@@H](C)[C@H]3N)n2cnnc2c1Sc1ccnc(N)c1Cl` [Compound 61, (3S,4S)-8-{8-[(2-amino-3-chloropyridin-4-yl)sulfanyl]-7-methyl-[1,2,4]triazolo[4,3-c]pyrimidin-5-yl}-3-methyl-2-oxa-8-azaspiro[4.5]decan-4-amine], for which the pIC50 is at least 7.30.

`CC1(O)CCN(c2ncc(Sc3ccnc(N)c3Cl)c3nccn23)CC1` [Compound 79]: the pIC50 is under 6.30.

Regarding `Nc1nccc(Sc2cnc(N3CCC[C@H]3CO)n3ccnc23)c1Cl` [Compound 67], the pIC50 is under 6.30.

`Cc1nc(N2CCC3(CC2)CO[C@@H](C)[C@H]3N)n2ccnc2c1-c1cccc2c(F)c[nH]c12` [Compound 55, (3S,4S)-8-[8-(3-fluoro-1H-indol-7-yl)-7-methylimidazo[1,2-c]pyrimidin-5-yl]-3-methyl-2-oxa-8-azaspiro[4.5]decan-4-amine] had a pIC50 of at least 7.30.

`N[C@@H]1CCCC12CCN(c1ccc(-c3cccc(Cl)c3Cl)c3cncn13)CC2` [Compound 5, (1R)-8-[8-(2,3-dichlorophenyl)imidazo[1,5-a]pyridin-5-yl]-8-azaspiro[4.5]decan-1-amine] had a pIC50 of under 6.30.

`COc1c(C#N)ccc(-c2c(C)nc(N3CCC4(CC3)CO[C@@H](C)[C@H]4N)n3ccnc23)c1Cl` [Compound 46, 4-{5-[(3S,4S)-4-amino-3-methyl-2-oxa-8-azaspiro[4.5]decan-8-yl]-7-methylimidazo[1,2-c]pyrimidin-8-yl}-3-chloro-2-methoxybenzonitrile] showed a pIC50 of at least 7.30.

Regarding `C[C@@H]1OCC2(CCN(c3ncc(Sc4ccnc5nc[nH]c45)c4nccn34)CC2)[C@@H]1N` [Compound 17, (3S,4S)-8-(8-{1H-imidazo[4,5-b]pyridin-7-ylsulfanyl}imidazo[1,2-c]pyrimidin-5-yl)-3-methyl-2-oxa-8-azaspiro[4.5]decan-4-amine], the pIC50 was at least 7.30.

`Cc1nc(N2CCC3(CC2)CO[C@@H](C)[C@H]3N)n2ccnc2c1-c1ccc(O)c(Cl)c1Cl` [Compound 54, 4-{5-[(3S,4S)-4-amino-3-methyl-2-oxa-8-azaspiro[4.5]decan-8-yl]-7-methylimidazo[1,2-c]pyrimidin-8-yl}-2,3-dichlorophenol] showed a pIC50 of at least 7.30.

Compound `C[C@@H]1OCC2(CCN(c3cnc(Sc4ccnc(N)c4Cl)c4nccn34)CC2)[C@@H]1N` [Compound 65, (3S,4S)-8-{8-[(2-amino-3-chloropyridin-4-yl)sulfanyl]imidazo[1,2-a]pyrazin-5-yl}-3-methyl-2-oxa-8-azaspiro[4.5]decan-4-amine] showed a pIC50 of under 6.30.

Regarding `COc1cccc(-c2c(C)nc(N3CCC4(CC3)C[C@@H](OC3COC3)C[C@H]4N)n3ccnc23)c1Cl` [Compound 64, (2R,4R)-8-[8-(2-chloro-3-methoxy-phenyl)-7-methyl-imidazo[1,2-c]pyrimidin-5-yl]-2-(oxetan-3-yloxy)-8-azaspiro[4.5]decan-4-amine], the pIC50 was at least 7.30.

Compound `Cc1nc(N2CCC3(CC2)CO[C@@H](C)[C@H]3N)n2cnnc2c1-c1cccc(Cl)c1Cl` [Compound 6, (3S,4S)-8-[8-(2,3-dichlorophenyl)-7-methyl-[1,2,4]triazolo[4,3-c]pyrimidin-5-yl]-3-methyl-2-oxa-8-azaspiro[4.5]decan-4-amine] had a pIC50 of at least 7.30.

The compound `Cc1nc(N2CCC3(CC2)CO[C@@H](C)[C@H]3N)n2ccnc2c1-c1ccnc2cc[nH]c12` [Compound 53, (3S,4S)-3-methyl-8-(7-methyl-8-{1H-pyrrolo[3,2-b]pyridin-7-yl}imidazo[1,2-c]pyrimidin-5-yl)-2-oxa-8-azaspiro[4.5]decan-4-amine] had a pIC50 of at least 7.30.

For the compound `COc1ccc(-c2c(C)nc(N3CCC4(CC3)CO[C@@H](C)[C@H]4N)n3ccnc23)c(Cl)c1C#N` [Compound 31, 3-{5-[(3S,4S)-4-amino-3-methyl-2-oxa-8-azaspiro[4.5]decan-8-yl]-7-methylimidazo[1,2-c]pyrimidin-8-yl}-2-chloro-6-methoxybenzonitrile], the pIC50 is at least 7.30.

On to `Nc1nccc(Sc2cnc(N3CC[C@H](O)C3)n3ccnc23)c1Cl` [Compound 76], for which the pIC50 was under 6.30.

For `NCCNc1ncc(Sc2ccnc(N)c2Cl)c2nccn12` [Compound 23, N1-{8-[(2-amino-3-chloropyridin-4-yl)sulfanyl]imidazo[1,2-c]pyrimidin-5-yl}ethane-1,2-diamine], the pIC50 was under 6.30.

For `NCCC1CN(c2ncc(Sc3ccnc(N)c3Cl)c3nccn23)C1` [Compound 22, 4-({5-[3-(2-aminoethyl)azetidin-1-yl]imidazo[1,2-c]pyrimidin-8-yl}sulfanyl)-3-chloropyridin-2-amine], the negative logarithm of the IC50 (pIC50) was under 6.30.

`Nc1nccc(Sc2cnc(N3CCC[C@@H]3CO)n3ccnc23)c1Cl` [Compound 72] showed a pIC50 of under 6.30.

Turning to `Cc1nc(N2CCC3(CC2)CO[C@@H](C)[C@H]3N)n2ccnc2c1-c1ccc2ccnn2c1` [Compound 48, (3S,4S)-3-methyl-8-(7-methyl-8-pyrazolo[1,5-a]pyridin-6-yl-imidazo[1,2-c]pyrimidin-5-yl)-2-oxa-8-azaspiro[4.5]decan-4-amine], the negative logarithm of the IC50 (pIC50) is at least 7.30.

For the compound `Cc1nc(N2CCC3(CC2)CO[C@@H](C)[C@H]3N)n2ccnc2c1-c1cccc2cn[nH]c12` [Compound 36, (3S,4S)-8-[8-(2H-indazol-7-yl)-7-methylimidazo[1,2-c]pyrimidin-5-yl]-3-methyl-2-oxa-8-azaspiro[4.5]decan-4-amine], the pIC50 was at least 7.30.

For `CC1(N)CCN(c2ncc(Sc3ccnc(N)c3Cl)c3nccn23)CC1` [Compound 2, 4-{[5-(4-amino-4-methylpiperidin-1-yl)imidazo[1,2-c]pyrimidin-8-yl]sulfanyl}-3-chloropyridin-2-amine], the pIC50 was 6.30 to 7.30.
